Read-outs that look alike come from different tables or passages of the source.

In patent US9714243B2, “4-pyridinonetriazine derivatives as HIV integrase inhibitors” (Merck Sharp & Dohme Corp., priority 2012, dated 2017) one finds IC50 data, which are given here for 5 compounds.

In this test the test system is HIV-1 (NL4-3 strain). Kind of test: Assay for inhibition of HIV replication (ViKinG; infected MT4-GFP cells). The class given is cell-based. In short, it runs like this: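 MT4-GFP cells infected with NL4-3 at low MOI for 24 h, washed, then exposed to serially diluted compound (0.4% DMSO) in RPMI. GFP+ cells counted at 24 and 48 h; R0 = 48 h/24 h ratio, inhibition normalised to DMSO and triple-drug controls, IC50 from 4-parameter fit.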

The mark [1] stands for this setting: Human immunodeficiency virus 1, NL43, MT4-GFP cells infected with HIV-1 NL4-3, 0% normal human serum (NHS), read-out: ViKinG IP (nM) with 0% NHS.
Where [2] appears, read: Human immunodeficiency virus 1, NL43, MT4-GFP cells infected with HIV-1 NL4-3, 100% normal human serum (NHS), read-out: ViKinG IP (nM) with 100% NHS.
The mark [3] stands for this setting: MT4-GFP cells infected with HIV-1 NL4-3, 0% normal human serum (NHS), read-out: ViKinG IP (nM) with 0% NHS.
Where [4] appears, read: MT4-GFP cells infected with HIV-1 NL4-3, 10% normal human serum (NHS), read-out: ViKinG IP (nM) with 10% NHS.
Where [5] appears, read: MT4-GFP cells infected with HIV-1 NL4-3, 100% normal human serum (NHS), read-out: ViKinG IP (nM) with 100% NHS.

Regarding `CCN1C(=O)c2c(O)c(=O)c(-c3nnc(Cc4ccc(F)cc4F)s3)cn2N(C)C12CCC(OCCOCCOC)CC2` (centres unmarked) [Compound 66], the IC50 reads like this: under setting [1], 12 nM; under setting [2], 93.9 nM.

`CCN1C(=O)c2c(O)c(=O)c(-c3nnc(Cc4ccc(F)cc4F)s3)cn2N(C)C12CCC(OC)CC2` (centres unmarked) [Compound 27]: the IC50 turned out to be 9.24 nM under setting [3], 11.5 nM under setting [4] and 191 nM under setting [5].

`CN1C(=O)c2c(O)c(=O)c(-c3nnc(Cc4ccc(F)cc4F)s3)cn2N(C)C12CCC(C)(C(=O)O)CC2` (centres unmarked) [Compound 83]: the IC50 under setting [3] was 151 nM and the IC50 under setting [4] was 755 nM.

On to `CN1C(=O)c2c(O)c(=O)c(-c3nnc(Cc4ccc(F)cc4F)s3)cn2N(C)C12CC[C@@H](C(=O)NC1CC1)C(C)(C)C2` (some centres unmarked) [Compound 142], for which the IC50 by setting is: under setting [1], 5.63 nM; under setting [2], 558 nM.

With `CCN1C(=O)c2c(O)c(=O)c(-c3nnc(Cc4ccc(F)cc4F)s3)cn2N(C)C12CCC(OC(C)C)CC2` (centres unmarked) [Compound 62], the IC50 was 8.11 nM under setting [3] and 159 nM under setting [5].
